Assay results from PMC9101373, “Design of DNA Intercalators Based on 4-Carboranyl-1,8-Naphthalimides: Investigation of Their DNA-Binding Ability and Anticancer Activity” (International Journal of Molecular Sciences, 2022).
Where two headings read alike, the source gives them in different places.

Tests used:
[1] = molecular target: T1, human topoisomerase IIα (Homo sapiens, UniProt P11388); experiment: Human topoisomerase IIα relaxation assay; type: biochemical; conditions: supercoiled pBR322, concentration range 0.1–100 µM; read-out: IC50, compound concentration required to inhibit the activity of this enzyme by 50%
T1 construct: purchased Inspiralis (Norwich, UK)
T1 sequence (P11388 whole entry): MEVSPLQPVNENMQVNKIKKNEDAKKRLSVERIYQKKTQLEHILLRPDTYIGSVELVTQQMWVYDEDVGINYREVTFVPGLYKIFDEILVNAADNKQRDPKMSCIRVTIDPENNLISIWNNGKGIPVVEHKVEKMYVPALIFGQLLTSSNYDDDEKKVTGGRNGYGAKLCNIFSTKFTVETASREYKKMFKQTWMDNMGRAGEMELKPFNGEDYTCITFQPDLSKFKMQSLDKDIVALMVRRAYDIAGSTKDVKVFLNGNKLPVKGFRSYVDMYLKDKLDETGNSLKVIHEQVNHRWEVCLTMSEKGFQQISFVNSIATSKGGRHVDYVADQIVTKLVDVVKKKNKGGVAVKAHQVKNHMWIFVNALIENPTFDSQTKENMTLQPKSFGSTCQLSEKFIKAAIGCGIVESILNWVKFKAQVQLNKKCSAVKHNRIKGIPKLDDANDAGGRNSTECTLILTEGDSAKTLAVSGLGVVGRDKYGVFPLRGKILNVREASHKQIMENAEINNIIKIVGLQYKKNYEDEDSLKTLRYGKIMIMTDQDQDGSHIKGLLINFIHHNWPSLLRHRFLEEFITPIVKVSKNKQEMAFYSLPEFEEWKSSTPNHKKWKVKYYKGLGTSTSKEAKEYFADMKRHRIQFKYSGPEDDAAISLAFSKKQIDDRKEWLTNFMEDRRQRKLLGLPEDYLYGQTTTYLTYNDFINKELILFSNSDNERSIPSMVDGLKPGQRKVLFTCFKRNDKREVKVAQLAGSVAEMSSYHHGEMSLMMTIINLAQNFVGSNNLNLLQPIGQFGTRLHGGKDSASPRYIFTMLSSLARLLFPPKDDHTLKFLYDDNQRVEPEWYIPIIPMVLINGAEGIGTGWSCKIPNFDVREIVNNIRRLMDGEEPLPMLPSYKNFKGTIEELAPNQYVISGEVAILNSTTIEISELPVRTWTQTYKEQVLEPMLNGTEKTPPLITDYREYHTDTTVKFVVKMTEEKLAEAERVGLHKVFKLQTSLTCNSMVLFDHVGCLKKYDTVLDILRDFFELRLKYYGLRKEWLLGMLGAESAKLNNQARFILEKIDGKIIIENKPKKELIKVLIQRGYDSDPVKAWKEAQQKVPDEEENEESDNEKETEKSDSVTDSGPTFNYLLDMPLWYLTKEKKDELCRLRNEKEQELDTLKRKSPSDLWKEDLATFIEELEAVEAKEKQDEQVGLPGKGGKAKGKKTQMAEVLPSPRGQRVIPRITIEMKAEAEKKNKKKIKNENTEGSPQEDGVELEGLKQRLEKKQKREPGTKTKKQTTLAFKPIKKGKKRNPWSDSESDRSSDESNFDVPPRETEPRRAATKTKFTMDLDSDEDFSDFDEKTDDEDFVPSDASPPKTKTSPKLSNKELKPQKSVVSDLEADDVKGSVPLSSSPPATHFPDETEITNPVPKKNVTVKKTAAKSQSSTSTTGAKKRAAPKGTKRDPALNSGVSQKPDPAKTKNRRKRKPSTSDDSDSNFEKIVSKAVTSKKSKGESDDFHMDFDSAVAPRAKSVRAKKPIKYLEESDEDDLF
Experimental: Therefore, we subjected these compounds to further detailed analyses of inhibitory potential within the concentration range of 0.1–100 µM (Figure S301, ESI) to calculate IC50 values. IC50 refers to the compound concentration (µM) required to inhibit the activity of the topoisomerase enzyme by 50%.
The Human Topoisomerase II-alpha Relaxation Assay Kit was purchased from Inspiralis (Norwich, UK). The Topo IIα inhibition assay was performed as described by the manufacturer. […] Next, TopoIIα (1 U) was added, and the reaction mixture was incubated at 37 °C for an additional 45 min. The reaction was terminated by addition of the STEB buffer (40 % (w/v) sucrose, Tris-HCl (100 mM, pH 8), EDTA (1 mM), bromophenol blue (0.5 mg/mL)). The products were analyzed by electrophoresis using agarose gel (1%) in TAE buffer at 70 V for 2 h, followed by ethidium bromide staining. […] The percentage of Topo-II alpha activity inhibition was calculated by densitometric quantification (Quantity One software, Bio-Rad). The occurrence of a band representing supercoiled DNA on an agarose gel indicated the inhibition of enzyme activity.

[2] = system: HepG2 cells; design: method as in PMID 31776032; conditions: cited from earlier work
[3] = system: calf thymus DNA (ct-DNA); design: method as in PMID 33803403; conditions: unmodified mitonafide and pinafide; cited from earlier work
[4] = system: HepG2 cells; design: method as in PMID 31776032; conditions: read-out: IC50, compound concentration required to inhibit cell growth by 50%; cited from earlier work
[5] = system: HepG2 cells; experiment: In vitro cytotoxic activity, MTT assay; type: cell-based, human; conditions: 24 h treatment, read-out: IC50, compound concentration required to inhibit cell growth by 50%
Experimental: The obtained 1,8-naphthalimide–carborane conjugates were investigated for their in vitro antitumor activity by examining their cytotoxic effects using the MTT tetrazolium dye assay against the human cancer cell line HepG2 established from hepatocellular carcinoma. IC50 refers to the drug concentration (µM) required to inhibit cell growth by 50%.
The cytotoxic properties of the synthesized compounds were evaluated using the human hepatocellular carcinoma cell line HepG2 established from hepatocellular carcinoma. The HepG2 cell line was purchased from ECACC (Salisbury, UK). Cells were grown in EMEM medium (Corning®) supplemented with 10% heat-inactivated fetal bovine serum (FBS) (Corning®) and antibiotics (Corning®), at 37 °C in a 5% CO2 atmosphere. Upon reaching 80–90% confluency, cells were detached with the trypsin (Corning®) and transferred into 96-well microplates at a density of 12 × 10^3. After overnight incubation at 37 °C in a humidified atmosphere containing 5% CO2, the cells were treated for the next 24 h with compounds. The stock solution of each compound was prepared in DMSO at 10 mM. The cytotoxicity was evaluated by the MTT assay. […] Subsequently, the medium was aspirated and replaced with 3-(4,5-dimethylthiazol-2-yl)-2,5-diphenyltetrazolium bromide (MTT) dye solution (50 µL, 0.5 mg/mL). After 3 h incubation, the resulting MTT formazan crystals were dissolved in DMSO (100 µL). To ensure the complete dissolution of formazan, the plates were shaken on an orbital microplate shaker at 1000 rpm for 15 min (Thermoshaker NeoLab 7–0055, Bionovo, Legnica, Poland). The optical density of each well was then measured on a VICTOR Nivo multimode plate reader at a wavelength of 570 nm. Each experiment consisted of 6 replications of each concentration, and each experiment was repeated three times independently. The results were calculated as a percentage of control group viability. The IC50 values were determined using a non-linear regression from the plot of % viability against log dose of compounds by using GraphPad Prism 6.0 software (GraphPad, San Diego, CA, USA).

[6] = system: calf thymus DNA (ct-DNA); experiment: Melting temperature (Tm) measurements of ct-DNA, thermal denaturation; type: binding; conditions: r = [compound]/[ct-DNA] = 0.3; pH 7.0, 20 mM cacodylate buffer; Tm of ct-DNA alone 74 °C
Experimental: The melting temperature (Tm) of DNA is defined as the temperature at which 50% of the DNA is in form of single strands forming randomly coiled structures. DNA melting is measured by the absorbance of UV light (260 nm) by the DNA solution, where the amount of UV light absorbed is proportional to the fraction of non-bonded base pairs. The majority of DNA-binding small molecules known thus far stabilize duplex DNA against heat denaturation. A high, drug-induced increase in the Tm of DNA is generally viewed as an excellent criterion to select DNA ligands and is a common feature of several anticancer drugs such as intercalators (a significant increase in Tm = 3–8 °C is observed for strong intercalation) and alkylators. The reverse situation (destabilization of DNA to facilitate its denaturation) may be an attractive option to identify therapeutic agents acting on the DNA structure.
Our study conducted Tm measurement to estimate the impact of 1,8-naphthalimides bearing the carborane cluster on DNA stabilization (Table 1, Figures S249–S253, ESI).
The measurements were performed by adding aliquots of DMSO stock solution of the tested compounds to the buffer solution (pH 7.0, 20 mM, cacodylate buffer, DMSO content of the final solution = 0.24–0.36%). The Tm curves were collected at r = 0.3 (r = [compound]/[ct-DNA]) to assure the dominant binding mode. Thermal melting curves were determined by following the absorption change at 260 nm as a function of temperature by using a GBC Cintra10 UV–vis spectrometer (Dandenong, Australia) equipped with a GBC Thermocell Peltier Power Supply (Dandenong, Australia) using a 1 cm path length cell. The absorbance of the samples was monitored at 260 nm from 30 to 90 °C (95 °C for compounds 54–61) with a heating rate of 1 °C/min. Tm values are the midpoints or the transition curves determined from the maximum of the first derivative. The ΔTm values were calculated by subtracting the Tm of the free nucleic acid from the Tm of the sample. Every Tm value reported in this study was average at least three measurements. The error in Tm was 0.5 °C.

[7] = system: calf thymus DNA (ct-DNA); experiment: UV–vis absorption titration with ct-DNA, binding constant Kb; conditions: 10 µM compound, ct-DNA 1.25–15 µM
Text: The interaction of 1,8-naphthalimides bearing carborane clusters with ct-DNA was also studied by UV–vis absorption titration to better understand the mode of interaction and binding strength. For compounds interacting with DNA by intercalation, bathochromic and hypochromic effects are observed in the absorption spectra. The spectral changes observed in the electronic absorption of 6–11, 16–19, 36–43, and 54–61 in the absence and presence of ct-DNA are illustrated in Figures S271–S296 (ESI). Progressive addition of ct-DNA at the concentration of 1.25–15 µM to a fixed amount of modified naphthalic anhydride or naphthalimide (10 µM concentration) decreased absorbance for almost all the tested modified conjugates, except conjugates 14, 15, and 22–27 for which changes in absorbance were not observed. […] Hypochromicity (10–56%) was also observed for all conjugates, with the highest value for compound 40.
To compare the DNA-binding strength of the tested conjugates, we calculated the binding constant Kb, as described in the Materials and Methods section. […] For conjugates 14, 15, and 22–27, the Kb value could not be determined due to the lack of noticeable changes in the UV spectra.
The measurements were performed by adding aliquots of DMSO stock solution of the tested compounds to the buffer solution (pH 7.4, 20 mM, 50 mM NaCl, Tris-HCl buffer, DMSO content of the final solutions = 0.40–0.61%) to the final concentration of 10 µM. The tested compounds were incubated 5 min, with increasing concentrations ranging from 0 to 15 µM of ct-DNA at 37 °C, then the UV–vis absorption spectra, between 310 and 500 nm (310–550 nm for compounds 36–43 and 54–61), were recorded using a GBC Cintra10 UV–vis spectrometer (Dandenong, Australia) equipped with a GBC Thermocell Peltier Power Supply (Dandenong, Australia) using a 1 cm path length cell. The binding constant was calculated according to the following equation [53]: A0/A−A0=εG/εH−G−εG +εG/εH−G−εG ×1/Kb[DNA] where Kb is the binding constant, A0 and A are the absorbance of the free tested compound, and the apparent one, εG and εH−G are their coefficient, respectively, and [DNA] is the concentration of [DNA] in the base pair. The slope to intercept ratio of the plot between A0/A − A0 versus 1/[DNA] yielded the binding constant.

| Compound | IC50 [1] | 8-oxo-dG level in cellular DNA [2] | ΔTm ct-DNA [3] | IC50 [4] | IC50 [5] | ΔTm ct-DNA [6] | bathochromic shift [7] |
| --- | --- | --- | --- | --- | --- | --- | --- |
| CN(C)CCN1C(=O)c2cccc3cc([N+](=O)[O-])cc(c23)C1=O [Mitonafide, mitonafide] | 5.13 µM | Mitonafide—28.24 ± 0.18 per 10^6 dG [8]. | 5.17 °C | < 1 µM | – | – | – |
| O=C1c2cccc3cc([N+](=O)[O-])cc(c23)C(=O)N1CCN1CCCC1 [Pinafide, pinafide] | – | – | 6.50 °C | 1.23 µM | – | – | – |
| N-[2-(N-Pyrrolidinyl)ethyl]-4-{1-[3-(1,7-dicarba-closo-dodecaborane-1-yl)propyl]-1H-1,2,3-triazol-4-yl}-1,8-naphthalimide [Compound 11] | – | – | – | – | 14.6 ± 0.43 µM | 0.33 °C | 1–2 nm |
| N-[2-(N-Pyrrolidinyl)ethyl]-4-{1-[3-(1,7-dicarba-closo-dodecaborane-1-yl)propyl]-1H-1,2,3-triazol-4-yl}methoxy-1,8-naphthalimide [Compound 19] | – | – | – | – | 15 ± 0.57 µM | 0.67 °C | 1–2 nm |
| N-[2-(N-Pyrrolidinyl)ethyl]-4-{1-[3-(1,2-dicarba-closo-dodecaborane-1-yl)propyl]-1H-1,2,3-triazol-4-yl}methoxy-1,8-naphthalimide [Compound 17] | – | – | – | – | 36.9 ± 3.72 µM | 0.67 °C | 1–2 nm |
